Test results published in patent publication US9499547B2 (BAYER INTELLECTUAL PROPERTY GMBH, priority 2011, dated 2016).

Key:
human full-length MKNK1 [1] = target: T1, human full-length MKNK1 (Homo sapiens (Human), UniProt Q9BUB5, T344D); test: MKNK1 kinase assay (MKNK1 TR-FRET assay); assay type: biochemical; settings: 10 μM ATP final conc.; 15 min preincubation with enzyme
Experimental: MKNK1-inhibitory activity of compounds of the present invention was quantified employing the MKNK1 TR-FRET assay as described in the following paragraphs.
As substrate for the kinase reaction the biotinylated peptide biotin-Ahx-[…] (C-terminus in amide form) was used which can be purchased e.g. form the company Biosyntan (Berlin-Buch, Germany).
(§1) For the assay 50 nL of a 100 fold concentrated solution of the test compound in DMSO was pipetted into a black low volume 384 well microtiter plate (Greiner Bio-One, Frickenhausen, Germany), 2 μL of a solution of MKNK1 in aqueous assay buffer [50 mM HEPES pH 7.5, 5 mM magnesium chloride, 1.0 mM dithiothreitol, 0.005% (v/v) Nonidet-P40 (Sigma)] was added and the mixture was incubated for 15 min at 22° C. to allow pre-binding of the test compounds to the enzyme before the start of the kinase reaction. Then the kinase reaction was started by the addition of 3 μL of a solution of adenosine-tri-phosphate (ATP, 16.7 μM=>final conc. in the 5 μL assay volume is 10 μM) and substrate (0.1 μM=>final conc. in the 5 μL assay volume is 0.06 μM) in assay buffer and the resulting mixture was incubated for a reaction time of 45 min at 22° C. The concentration of MKNK1 was adjusted depending of the activity of the enzyme lot and was chosen appropriate to have the assay in the linear range, typical concentrations were in the range of 0.05 μg/ml. The reaction was stopped by the addition of 5 μL of a solution of TR-FRET detection reagents (5 nM streptavidine-XL665 [Cisbio Bioassays, Codolet, France] and 1 nM anti-ribosomal protein S6 (pSer236)-antibody from Invitrogen [#44921G] and 1 nM LANCE EU-W1024 labeled ProteinG [Perkin-Elmer, product no. AD0071]) in an aqueous EDTA-solution (100 mM EDTA, 0.1% (w/v) bovine serum albumin in 50 mM HEPES pH 7.5).
(§2) The resulting mixture was incubated for 1 h at 22° C. to allow the formation of complex between the phosphorylated biotinylated peptide and the detection reagents. Subsequently the amount of phosphorylated substrate was evaluated by measurement of the resonance energy transfer from the Eu-chelate to the streptavidine-XL. Therefore, the fluorescence emissions at 620 nm and 665 nm after excitation at 350 nm were measured in a TR-FRET reader, e.g. a Rubystar (BMG Labtechnologies, Offenburg, Germany) or a Viewlux (Perkin-Elmer). The ratio of the emissions at 665 nm and at […] was taken as the measure for the amount of phosphorylated substrate. The data were normalised (enzyme reaction without inhibitor=0% inhibition, all other assay components but no enzyme=100% inhibition).

human full-length MKNK1 [2] = target: T1, human full-length MKNK1; test: MKNK1 kinase high ATP assay (TR-FRET-based); assay type: biochemical; settings: 2 mM ATP final conc.; 15 min preincubation with enzyme
Experimental: MKNK1 Kinase High ATP Assay
MKNK1-inhibitory activity at high ATP of compounds of the present invention after their preincubation with MKNK1 was quantified employing the TR-FRET-based MKNK1 high ATP assay as described in the following paragraphs.
As substrate for the kinase reaction the biotinylated peptide biotin-Ahx-[…] (C-terminus in amide form) was used, which can be purchased e.g. from the company Biosyntan (Berlin-Buch, Germany).
as §1, with “3.3 mM=>final” for “16.7 μM=>final”, “2 mM)” for “10 μM)”, “30” for “45”, “0.003 μg/mL.” for “0.05 μg/ml.”
as §2

T1 sequence (Q9BUB5 other isoform, or with tags, fused parts or gaps T344D): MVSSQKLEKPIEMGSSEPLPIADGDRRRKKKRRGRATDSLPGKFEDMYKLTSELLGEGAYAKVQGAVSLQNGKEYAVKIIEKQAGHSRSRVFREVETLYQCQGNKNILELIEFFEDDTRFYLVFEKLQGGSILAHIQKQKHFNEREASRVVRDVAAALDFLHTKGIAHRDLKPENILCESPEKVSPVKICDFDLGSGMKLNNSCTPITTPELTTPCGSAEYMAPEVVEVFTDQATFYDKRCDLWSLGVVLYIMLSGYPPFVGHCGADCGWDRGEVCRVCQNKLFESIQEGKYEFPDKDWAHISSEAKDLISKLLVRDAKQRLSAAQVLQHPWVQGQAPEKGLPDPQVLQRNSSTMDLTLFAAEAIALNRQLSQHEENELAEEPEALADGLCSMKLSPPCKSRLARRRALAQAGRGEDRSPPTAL

| Structure (SMILES) | IC50 (human full-length MKNK1 [1]) [nM] | IC50 (human full-length MKNK1 [2]) [nM] |
| --- | --- | --- |
| COc1cccc2oc(-c3cnc4ccc(OCCCCN)nn34)cc12 [Example 1, 4-{[3-(4-Methoxy-1-benzofuran-2-yl)imidazo[1,2-b]pyridazin-6-yl]oxy}butan-1-amine] | 3 | 5 |
| N[C@H]1C[C@H](Oc2ccc3ncc(-c4cc5ccccc5o4)n3n2)C1 [Example 2, trans-3-{[3-(1-Benzofuran-2-yl)imidazo[1,2-b]pyridazin-6-yl]oxy}cyclobutanamine] | 5 | 6 |
| N[C@H]1C[C@@H](Oc2ccc3ncc(-c4cc5ccccc5o4)n3n2)C1 [Example 3, cis-3-{[3-(1-Benzofuran-2-yl)imidazo[1,2-b]pyridazin-6-yl]oxy}cyclobutanamine] | 4 | 17 |
| COc1cccc2oc(-c3cnc4ccc(OCCCN)nn34)cc12 [Example 4, 3-{[3-(4-Methoxy-1-benzofuran-2-yl)imidazo[1,2-b]pyridazin-6-yl]oxy}propan-1-amine] | 5 | 15 |
| COc1cccc2oc(-c3cnc4ccc(OCCN)nn34)cc12 [Example 5, 2-{[3-(4-Methoxy-1-benzofuran-2-yl)imidazo[1,2-b]pyridazin-6-yl]oxy}ethanamine] | 6 | 18 |
| COc1ccc2oc(-c3cnc4ccc(OCCN)nn34)cc2c1 [Example 6, 2-{[3-(5-Methoxy-1-benzofuran-2-yl)imidazo[1,2-b]pyridazin-6-yl]oxy}ethanamine] | 6 | 13 |
| C[C@H](N)COc1ccc2ncc(-c3cc4ccccc4o3)n2n1 [Example 7, (2S)-1-{[3-(1-Benzofuran-2-yl)imidazo[1,2-b]pyridazin-6-yl]oxy}propan-2-amine] | 7 | 18 |
| NCCCCOc1ccc2ncc(-c3cc4ccccc4o3)n2n1 [Example 8, 4-{[3-(1-Benzofuran-2-yl)imidazo[1,2-b]pyridazin-6-yl]oxy}butan-1-amine] | 7 | 17 |
| COc1ccc2oc(-c3cnc4ccc(OCCCN)nn34)cc2c1 [Example 9, 3-{[3-(5-Methoxy-1-benzofuran-2-yl)imidazo[1,2-b]pyridazin-6-yl]oxy}propan-1-amine] | 7 | 22 |
| NCCCOc1ccc2ncc(-c3cc4ccccc4o3)n2n1 [Example 11, 3-{[3-(1-Benzofuran-2-yl)imidazo[1,2-b]pyridazin-6-yl]oxy}propan-1-amine] | 8 | 24 |
| NCCOCCOc1ccc2ncc(-c3cc4ccccc4o3)n2n1 [Example 21, 2-(2-{[3-(1-Benzofuran-2-yl)imidazo[1,2-b]pyridazin-6-yl]oxy}ethoxy)ethanamine] | – | 14 |
| N[C@@H]1CCCC[C@H]1Oc1ccc2ncc(-c3cc4ccccc4o3)n2n1 [Example 23, (1R,2R)-2-{[3-(1-Benzofuran-2-yl)imidazo[1,2-b]pyridazin-6-yl]oxy}cyclohexanamine] | – | 18 |
| NC1(COc2ccc3ncc(-c4cc5ccccc5o4)n3n2)CCC1 [Example 27, 1-({[3-(1-Benzofuran-2-yl)imidazo[1,2-b]pyridazin-6-yl]oxy}methyl)cyclobutanamine] | – | 29 |
| C=CCCC(CN)Oc1ccc2ncc(-c3cc4ccccc4o3)n2n1 (centres unmarked) [Example 28, 2-{[3-(1-Benzofuran-2-yl)imidazo[1,2-b]pyridazin-6-yl]oxy}hex-5-en-1-amine] | – | 45 |
| NCC(CN1CCOCC1)Oc1ccc2ncc(-c3cc4ccccc4o3)n2n1 (centres unmarked) [Example 31, 2-{[3-(1-Benzofuran-2-yl)imidazo[1,2-b]pyridazin-6-yl]oxy}-3-(morpholin-4-yl)-propan-1-amine] | – | 78 |
| NC(COc1ccc2ncc(-c3cc4ccccc4o3)n2n1)C1CCOCC1 (centres unmarked) [Example 32, 2-{[3-(1-Benzofuran-2-yl)imidazo[1,2-b]pyridazin-6-yl]oxy}-1-(tetrahydro-2H-pyran-4-yl)ethanamine] | – | 79 |
| NCC(Cc1ccc(F)cc1)Oc1ccc2ncc(-c3cc4ccccc4o3)n2n1 (centres unmarked) [Example 53, 2-{[3-(1-Benzofuran-2-yl)imidazo[1,2-b]pyridazin-6-yl]oxy}-3-(4-fluorophenyl)-propan-1-amine] | – | 46 |
| NCC(Cc1ccncc1)Oc1ccc2ncc(-c3cc4ccccc4o3)n2n1 (centres unmarked) [Example 54, 2-{[3-(1-Benzofuran-2-yl)imidazo[1,2-b]pyridazin-6-yl]oxy}-3-(pyridin-4-yl)-propan-1-amine] | – | 19 |
| NC[C@H](Oc1ccc2ncc(-c3cc4ccccc4o3)n2n1)c1cccnc1 [Example 55, (2R)-2-{[3-(1-benzofuran-2-yl)imidazo[1,2-b]pyridazin-6-yl]oxy}-2-(pyridin-3-yl)ethanamine] | 16 | – |
| NCC(Oc1ccc2ncc(-c3cc4ccccc4o3)n2n1)c1ccc(F)cc1 (centres unmarked) [Example 56, 2-{[3-(1-benzofuran-2-yl)-imidazo-[1,2-b]-pyridazin-6-yl]oxy}-2-(4-fluoro-phenyl)-ethanamine] | 40 | – |
| NCC(Oc1ccc2ncc(-c3cc4ccccc4o3)n2n1)c1ccccn1 (centres unmarked) [Example 57, 2-{[3-(1-benzofuran-2-yl)-imidazo-[1,2-b]-pyridazin-6-yl]oxy}-2-(pyridin-2-yl)-ethanamine] | 94 | – |
| CC(C)Oc1cccc(C(CN)Oc2ccc3ncc(-c4cc5ccccc5o4)n3n2)c1 (centres unmarked) [Example 58, 2-{[3-(1-benzofuran-2-yl)-imidazo-[1,2-b]-pyridazin-6-yl]oxy}-2-(3-iso-propoxy-phenyl)-ethanamine] | 20 | – |
| NCC(Oc1ccc2ncc(-c3cc4ccccc4o3)n2n1)c1cccc(C(F)(F)F)c1 (centres unmarked) [Example 59, 2-{[3-(1-benzofuran-2-yl)-imidazo-[1,2-b]-pyridazin-6-yl]oxy}-2-[3-(tri-fluoro-methyl)-phenyl]-ethanamine] | 37 | – |
| NCC(Oc1ccc2ncc(-c3cc4ccccc4o3)n2n1)c1ccc(F)cc1F (centres unmarked) [Example 60, 2-{[3-(1-benzofuran-2-yl)-imidazo-[1,2-b]-pyridazin-6-yl]oxy}-2-(2,4-di-fluoro-phenyl)-ethanamine] | 39 | – |
| N[C@H](COc1ccc2ncc(-c3cc4ccccc4o3)n2n1)c1ccc(F)cc1 [Example 61, (1S)-2-{[3-(1-benzofuran-2-yl)imidazo[1,2-b]pyridazin-6-yl]oxy}-1-(4-fluorophenyl)ethanamine] | 29 | – |
| N[C@H](COc1ccc2ncc(-c3cc4ccccc4o3)n2n1)c1ccc(Cl)cc1 [Example 62, (1S)-2-{[3-(1-benzofuran-2-yl)imidazo[1,2-b]pyridazin-6-yl]oxy}-1-(4-chlorophenyl)ethanamine] | 31 | – |
| NC(COc1ccc2ncc(-c3cc4ccccc4o3)n2n1)c1cccnc1 (centres unmarked) [Example 63, 2-{[3-(1-benzofuran-2-yl)imidazo[1,2-b]pyridazin-6-yl]oxy}-1-(pyridin-3-yl)ethanamine] | 54 | – |
| NCCC(Oc1ccc2ncc(-c3cc4ccccc4o3)n2n1)c1ccc(F)cc1 (centres unmarked) [Example 64] | 57 | – |
